Consider 13 molecules from US8658791B2, “2-substituted-6-amino-5-alkyl, alkenyl or alkynyl-4-pyrimidinecarboxylic acids and 6-substituted-4-amino-3-alkyl, alkenyl or alkynyl picolinic acids and their use as herbicides” (Dow AgroSciences, LLC, priority 2007, dated 2014).

The structures appear in SMILES notation. Counter-ions that a name gives are not always drawn.

Data set [1] deals with lambsquarter (Chenopodium album). The data set is described as follows: General postemergence herbicidal activity, CHEAL. The note with it: postemergence spray, visual score after 14 days, 0 = no injury, 100 = complete kill; for pest or weed control at 280 g/ha / pest or weed control at 70 g/ha / pest or weed control at 140 g/ha: Chenopodium album, post-emergence, 336 h, read-out: Post-emergent Weed Control CHEAL; for pest or weed control at 280 g/ha: 280 g ai/ha; for pest or weed control at 140 g/ha: 140 g ai/ha. It counts as in vivo. The procedure, abridged: (§1)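 Foliar application at 187 L/ha to first/second true leaf plants, serial rates 1X to 1/16X in acetone/DMSO/water spray mix with crop oil and surfactant; day/night 23-29/22-28 °C. 14-day visual rating, 0–100% injury.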

Data set [2] deals with velvetleaf (Abutilon theophrasti). The experiment in a line: General postemergence herbicidal activity, ABUTH. It counts as in vivo. The note with it: postemergence spray, visual score after 14 days, 0 = no injury, 100 = complete kill; for pest or weed control at 280 g/ha / pest or weed control at 70 g/ha / pest or weed control at 140 g/ha: Abutilon theophrasti, post-emergence, 336 h, read-out: Post-emergent Weed Control ABUTH; for pest or weed control at 280 g/ha: 280 g ai/ha; for pest or weed control at 140 g/ha: 140 g ai/ha. The procedure, abridged:
as §1

In data set [3] the test system is wild poinsettia (Euphorbia heterophylla). The data set is described as follows: General postemergence herbicidal activity, EPHHL. It counts as in vivo. The note with it: postemergence spray, visual score after 14 days, 0 = no injury, 100 = complete kill; for pest or weed control at 280 g/ha / pest or weed control at 70 g/ha / pest or weed control at 140 g/ha: Euphorbia heterophylla, post-emergence, 336 h, read-out: Post-emergent Weed Control EPHHL; for pest or weed control at 280 g/ha: 280 g ai/ha; for pest or weed control at 140 g/ha: 140 g ai/ha. An outline of the steps:
as §1

Data set [4] concerns barnyardgrass (Echinochloa crus-galli). The experiment in a line: General postemergence herbicidal activity, ECHCG. The note with it: postemergence spray, visual score after 14 days, 0 = no injury, 100 = complete kill; for pest or weed control at 280 g/ha / pest or weed control at 70 g/ha / pest or weed control at 140 g/ha: Echinochloa crus-galli, post-emergence, 336 h, read-out: Post-emergent Weed Control ECHCG; for pest or weed control at 280 g/ha: 280 g ai/ha; for pest or weed control at 140 g/ha: 140 g ai/ha. The format is in vivo. An outline of the steps:
as §1

The next data set relates to rice (Oryza sativa). The experiment in a line: General postemergence herbicidal activity, ORYSA. It counts as in vivo. The note with it: postemergence spray, visual score after 14 days, 0 = no injury, 100 = complete kill; for plant injury at 280 g/ha / plant injury at 70 g/ha / plant injury at 140 g/ha: Oryza sativa, post-emergence, 336 h, read-out: Post-emergent Weed Control ORYSA; for plant injury at 280 g/ha: 280 g ai/ha; for plant injury at 140 g/ha: 140 g ai/ha. The procedure, abridged: as §1

One may read the melting point as the temperature, or range, at which the solid turns liquid. With `C=Cc1c(N)nc(-c2ccc(Cl)cc2)nc1C(=O)OC` [Compound 6, 6-Amino-2-(4-chlorophenyl)-5-vinylpyrimidine-4-carboxylic acid methyl ester], the melting point is 164 to 167 °C. Further, the pest or weed control at 280 g/ha in data set [1] stood at 90%. In data set [2], the pest or weed control at 280 g/ha was determined as 100%. The pest or weed control at 280 g/ha in data set [3] turned out to be 70%. For the same molecule, the pest or weed control at 280 g/ha in data set [4] amounted to 80%. The plant injury at 280 g/ha in the data set on rice (Oryza sativa) came out at 0%.
The molecule `C=Cc1c(N)nc(-c2ccc(Cl)c(OC)c2)nc1C(=O)OC` [Compound 7, 6-Amino-2-(4-chloro-3-methoxyphenyl)-5-vinylpyrimidine-4-carboxylic acid methyl ester] showed a melting point of 144 to 148 °C. The pest or weed control at 280 g/ha in data set [1] stood at 95%. The pest or weed control at 280 g/ha in data set [2] stood at 60%. Also, the pest or weed control at 280 g/ha in data set [3] turned out to be 70%. Also, in data set [4], the pest or weed control at 280 g/ha stood at 0%. Also, the plant injury at 280 g/ha with rice (Oryza sativa) was 0%.
`C=Cc1c(N)nc(-c2cc(OC)c(Cl)cc2F)nc1C(=O)OC` [Compound 8, 6-Amino-2-(4-chloro-2-fluoro-5-methoxyphenyl)-5-vinylpyrimidine-4-carboxylic acid methyl ester]: the melting point fell in the range of 161 to 164 °C. For the same molecule, the pest or weed control at 280 g/ha in data set [1] came to 100%. Further, in data set [2], the pest or weed control at 280 g/ha was found to be 100%. Besides, in data set [3], the pest or weed control at 280 g/ha is 50%. The pest or weed control at 280 g/ha in data set [4] was 100%. Besides, the plant injury at 280 g/ha in the data set with rice (Oryza sativa) came to 0%.
`C/C=C\c1c(N)nc(-c2ccc(Cl)c(OC)c2F)nc1C(=O)OC` [Compound 23, 6-Amino-2-(4-chloro-2-fluoro-3-methoxyphenyl)-5-((Z)-propenyl)pyrimidine-4-carboxylic acid methyl ester] displayed a melting point of 91 to 93 °C. Besides, in data set [1] (70 g ai/ha), the pest or weed control at 70 g/ha amounted to 95%. Also, in data set [2] (70 g ai/ha), the pest or weed control at 70 g/ha stood at 85%. Further, the pest or weed control at 70 g/ha in data set [3] (70 g ai/ha) was 100%. Further, the pest or weed control at 70 g/ha in data set [4] (70 g ai/ha) worked out at 95%. Moreover, in the data set on rice (Oryza sativa) (70 g ai/ha), the plant injury at 70 g/ha amounted to 10%.
Molecule `COc1c(Cl)ccc(-c2nc(N)c(C(C)OC)c(C(=O)O)n2)c1F` (stereo not shown) [Compound 40, 6-Amino-2-(4-chloro-2-fluoro-3-methoxyphenyl)-5-(1-methoxyethyl)pyrimidine-4-carboxylic acid] had a melting point of 165 to 167 °C. In addition, in data set [1], the pest or weed control at 280 g/ha was found to be 100%. For the same molecule, the pest or weed control at 280 g/ha in data set [2] was 85%. In addition, the pest or weed control at 280 g/ha in data set [3] is 100%. Moreover, the pest or weed control at 280 g/ha in data set [4] was determined as 90%. Besides, the plant injury at 280 g/ha in the data set on rice (Oryza sativa) turned out to be 35%.
`C=Cc1c(N)nc(-c2ccc(Cl)c(OC)c2F)nc1C(=O)O` [Compound 41, 6-Amino-2-(4-chloro-2-fluoro-3-methoxyphenyl)-5-vinylpyrimidine-4-carboxylic acid] showed a melting point of 167 to 168 °C. In addition, the pest or weed control at 70 g/ha in data set [1] (70 g ai/ha) came to 100%. For the same molecule, the pest or weed control at 70 g/ha in data set [2] (70 g ai/ha) worked out at 100%. Besides, in data set [3] (70 g ai/ha), the pest or weed control at 70 g/ha was 100%. Besides, in data set [4] (70 g ai/ha), the pest or weed control at 70 g/ha is 100%. Further, the plant injury at 70 g/ha with rice (Oryza sativa) (70 g ai/ha) amounted to 65%.
`C=Cc1c(N)nc(-c2ccc(Cl)c(F)c2F)nc1C(=O)O` [Compound 44, 6-amino-2-(4-chloro-2,3-difluorophenyl)-5-vinylpyrimidine-4-carboxylic acid] registered a melting point of 170 to 172 °C. Further, the pest or weed control at 70 g/ha in data set [1] (70 g ai/ha) was found to be 100%. Moreover, the pest or weed control at 70 g/ha in data set [2] (70 g ai/ha) came to 100%. The pest or weed control at 70 g/ha in data set [3] (70 g ai/ha) was 100%. The pest or weed control at 70 g/ha in data set [4] (70 g ai/ha) was found to be 100%. The plant injury at 70 g/ha in the data set with rice (Oryza sativa) (70 g ai/ha) is 15%.
The molecule `C=Cc1c(N)nc(-c2cc(F)c(Cl)cc2F)nc1C(=O)O` [Compound 46, 6-Amino-2-(4-chloro-2,5-difluorophenyl)-5-vinylpyrimidine-4-carboxylic acid] registered a melting point of 81 to 83 °C. In data set [1], the pest or weed control at 140 g/ha was found to be 100%. Further, the pest or weed control at 140 g/ha in data set [2] was 90%. Besides, in data set [3], the pest or weed control at 140 g/ha is 95%. Moreover, the pest or weed control at 140 g/ha in data set [4] was 90%. Further, in the data set with rice (Oryza sativa), the plant injury at 140 g/ha amounted to 40%.
As to `C=Cc1c(N)nc(-c2ccc(Cl)c(C(C)F)c2F)nc1C(=O)O` (stereo not shown) [Compound 47, 6-Amino-2-(4-chloro-2-fluoro-3-(1-fluoroethyl)phenyl)-5-vinylpyrimidine-4-carboxylic acid], the melting point was in the range of 150 to 153 °C. Moreover, the pest or weed control at 70 g/ha in data set [1] (70 g ai/ha) came out at 100%. For the same molecule, the pest or weed control at 70 g/ha in data set [2] (70 g ai/ha) was 90%. Moreover, the pest or weed control at 70 g/ha in data set [3] (70 g ai/ha) stood at 100%. The pest or weed control at 70 g/ha in data set [4] (70 g ai/ha) was found to be 100%. The plant injury at 70 g/ha in the data set with rice (Oryza sativa) (70 g ai/ha) worked out at 50%.
On to `C=Cc1c(N)nc(C2CC2)nc1C(=O)O` [Compound 57, 6-amino-2-cyclopropyl-5-vinylpyrimidine-4-carboxylic acid], for which the melting point is 187 to 189 °C. Moreover, in data set [1], the pest or weed control at 140 g/ha stood at 100%. In data set [2], the pest or weed control at 140 g/ha was found to be 90%. The pest or weed control at 140 g/ha in data set [3] came to 100%. In addition, in data set [4], the pest or weed control at 140 g/ha was determined as 30%. In the data set on rice (Oryza sativa), the plant injury at 140 g/ha was 5%.
Take `COc1c(Cl)ccc(-c2cc(N)c(C)c(C(=O)O)n2)c1F` [Compound 58, 4-Amino-6-(4-chloro-2-fluoro-3-methoxyphenyl)-3-methylpyridine-2-carboxylic acid]: the pest or weed control at 280 g/ha worked out at 50% in data set [1], 90% in data set [2], 90% in data set [3] and 50% in data set [4]. The plant injury at 280 g/ha in the data set with rice (Oryza sativa) was determined as 0%.
Regarding `C=Cc1c(N)cc(-c2ccc(Cl)cc2F)nc1C(=O)O` [Compound 60, 4-Amino-6-(4-chloro-2-fluorophenyl)-3-vinylpyridine-2-carboxylic acid], the melting point was in the range of 209 to 211 °C. For the same molecule, the pest or weed control at 140 g/ha in data set [1] was 100%. In addition, the pest or weed control at 140 g/ha in data set [2] came out at 70%. The pest or weed control at 140 g/ha in data set [3] amounted to 80%. Also, in data set [4], the pest or weed control at 140 g/ha was determined as 35%. In addition, in the data set on rice (Oryza sativa), the plant injury at 140 g/ha turned out to be 15%.
For the molecule `C=Cc1c(N)nc(-c2ccc(Cl)c(OC)c2F)nc1C(=O)O` [Compound 63, triethylamine salt of 6-amino-2-(4-chloro-2-fluoro-3-methoxyphenyl)-5-vinylpyrimidine-4-carboxylic acid], in data set [1] (70 g ai/ha), the “Post-emergent Weed Control CHEAL” value was determined as 100%. Also, the “Post-emergent Weed Control ABUTH” value in data set [2] (70 g ai/ha) is given as 95%. For the same molecule, in data set [3] (70 g ai/ha), the “Post-emergent Weed Control EPHHL” value is recorded as 100%. In addition, in data set [4] (70 g ai/ha), the “Post-emergent Weed Control ECHCG” value worked out at 90%. Besides, the “Post-emergent Weed Control ORYSA” value with rice (Oryza sativa) (70 g ai/ha) is 75%.
